# According to patent US8153809B2, “Dihydropyridone ureas as P2X7 modulators” (Roche Palo Alto LLC, priority 2008, dated 2012):
# Target: T1, P2X7 (UniProt Q99572)
# T1 sequence (Q99572 1-595): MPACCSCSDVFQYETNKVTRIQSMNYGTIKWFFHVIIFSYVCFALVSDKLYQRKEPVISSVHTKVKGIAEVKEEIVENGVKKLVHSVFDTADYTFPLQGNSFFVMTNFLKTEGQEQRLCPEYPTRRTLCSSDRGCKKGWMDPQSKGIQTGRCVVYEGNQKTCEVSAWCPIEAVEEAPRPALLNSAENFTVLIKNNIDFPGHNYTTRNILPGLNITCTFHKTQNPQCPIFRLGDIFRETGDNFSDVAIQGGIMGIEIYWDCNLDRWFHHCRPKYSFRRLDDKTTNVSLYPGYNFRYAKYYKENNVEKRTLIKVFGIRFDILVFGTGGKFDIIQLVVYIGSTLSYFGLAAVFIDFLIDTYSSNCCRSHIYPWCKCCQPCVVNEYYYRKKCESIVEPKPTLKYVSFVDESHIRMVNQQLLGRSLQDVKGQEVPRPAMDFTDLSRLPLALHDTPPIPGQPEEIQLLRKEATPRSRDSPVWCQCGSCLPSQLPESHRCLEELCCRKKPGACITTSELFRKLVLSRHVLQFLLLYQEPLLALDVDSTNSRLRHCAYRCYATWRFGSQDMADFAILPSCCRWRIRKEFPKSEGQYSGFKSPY
# Test: pIC50 values for P2X7 (Table 1)
# Type: cell-based
# Protocol: Intracellular Calcium Flux (FLIPR) Assay
# Compound and Reagent Preparation
# Stock solutions of compounds were prepared from powders as a 10 mM DMSO stock solution. These solutions were stored at RT during the two week period of these experiments to prevent freeze-thaw of the DMSO stocks. The DMSO stocks were added to the appropriate assay buffer at a concentration of 10 μM, and then diluted serially to the final concentrations that were tested. […] The aqueous solutions of compounds as well as ATP (Sigma A7699) and BzATP (Sigma B6396) were prepared fresh for each day of experiment.
# 1321N1 cells stably expressing the full length human P2X7 gene (1321N1-hP2X7) and HEK293 cells stably expressing the full length rat P2X7 gene (HEK293-rP2X7) were obtained from the Roche Cell Culture Facility. 1321N1-hP2X7 cells were grown in Dulbecco's Modified Eagle's Medium (DMEM) high glucose supplemented with 10% FBS and 250 μg/mL G418. HEK293-rP2X7 cells were grown in DMEM/F-12 supplemented with 10% FBS, 1 mM CaCl2, 2 mM MgCl2, 2 mM L-Glutamine and 500 μg/ml G418. Cells were split such that they never became >70% confluent.
# Intracellular Calcium Flux (FLIPR)
# On the day prior to the experiment, 1321N1-hP2X7 or HEK293-rP2X7 cells were released into suspension with calcium-free PBS+Versene and washed by centrifugation with calcium-free PBS to remove the Versene.
# On the day of the experiment, plates were washed with FLIPR buffer (calcium- and magnesium-free Hank's Balanced Salt Solution (HBSS) supplemented with 10 mM Hepes, 2.5 mM probenecid and 2 mM calcium chloride) using a BIO-TEK 96 channel plate washer and incubated with […] fluo-3 dye at 37° C. for one hr. The dye was then removed by plate washing and the cells were allowed to equilibrate for 20 min at room temperature with antagonist or vehicle (FLIPR buffer). Agonist (100 μM BzATP final concentration for hP2X7; 5 μM BzATP final concentration or rP2X7) was added online with the FLIPR and fluorescence measurements made at 1 sec intervals for 60 sec followed by 3 sec intervals for a further 4 min (5 min total). A final addition of 5 μM ionomycin was made and the maximal BzATP-evoked fluorescence normalized to the maximal ionomycin-evoked fluorescence.
row,pIC50,Compound
1,6.785,"CNC(=O)COc1cc(NC(=O)N2C=CC(=O)C[C@H]2c2ccc(F)cc2)c(Br)cc1Cl [Compound 25, (S)-2-(4-Fluoro-phenyl)-4-oxo-3,4-dihydro-2H-pyridine-1-carboxylic acid (2-bromo-4-chloro-5-methylcarbamoylmethoxy-phenyl)-amide]"
2,7.93,"COc1cc(C)c(NC(=O)N2C=CC(=O)C[C@H]2c2ccc(F)cc2)cc1OC [Compound 26, (S)-2-(4-Fluoro-phenyl)-4-oxo-3,4-dihydro-2H-pyridine-1-carboxylic acid (4,5-dimethoxy-2-methyl-phenyl)-amide]"
3,7.26,"COC(=O)c1cc(NC(=O)N2C=CC(=O)C[C@H]2c2ccc(F)cc2)c(Br)cc1Cl [Compound 27, 4-Bromo-2-chloro-5-{[(S)-2-(4-fluoro-phenyl)-4-oxo-3,4-dihydro-2H-pyridine-1-carbonyl]-amino}-benzoic acid methyl ester]"
4,6.435,"COc1cc(NC(=O)N2C=CC(=O)C[C@H]2c2ccc(F)cc2)c(Br)cc1S(C)(=O)=O [Compound 28, (S)-2-(4-Fluoro-phenyl)-4-oxo-3,4-dihydro-2H-pyridine-1-carboxylic acid (2-bromo-4-methanesulfonyl-5-methoxy-phenyl)-amide]"
5,6.7,"COC(=O)COc1cc(NC(=O)N2C=CC(=O)C[C@H]2c2ccc(F)cc2)c(Br)cc1Cl [Compound 30, (4-Bromo-2-chloro-5-{[(S)-2-(4-fluoro-phenyl)-4-oxo-3,4-dihydro-2H-pyridine-1-carbonyl]-amino}-phenoxy)-acetic acid methyl ester]"
6,7.27,"COCCOc1cc(NC(=O)N2C=CC(=O)C[C@H]2c2ccc(F)cc2)c(Br)cc1Cl [Compound 33, (S)-2-(4-Fluoro-phenyl)-4-oxo-3,4-dihydro-2H-pyridine-1-carboxylic acid [2-bromo-4-chloro-5-(2-methoxy-ethoxy)-phenyl]-amide]"
7,6.905,"Cc1n[nH]c2cc(NC(=O)N3C=CC(=O)C[C@H]3c3ccc(F)cc3)c(Br)cc12 [Compound 36, (S)-2-(4-Fluoro-phenyl)-4-oxo-3,4-dihydro-2H-pyridine-1-carboxylic acid (5-bromo-3-methyl-1H-indazol-6-yl)-amide]"
8,7.457,O=C1C=CN(C(=O)Nc2cc3c(cc2Br)OCO3)C(c2ccc(F)cc2)C1 (stereo not drawn) [Compound 37]
9,7.06,"COC(=O)c1cc(Br)c(NC(=O)N2C=CC(=O)C[C@H]2c2cccc(F)c2)cc1OC [Compound 39, 5-Bromo-4-{[(S)-2-(3-fluoro-phenyl)-4-oxo-3,4-dihydro-2H-pyridine-1-carbonyl]-amino}-2-methoxy-benzoic acid methyl ester]"
10,7.503,"COc1cc(NC(=O)N2C=CC(=O)C[C@H]2c2ccc(F)cc2)c(Br)cc1OC(F)F [Compound 42, (S)-2-(4-Fluoro-phenyl)-4-oxo-3,4-dihydro-2H-pyridine-1-carboxylic acid (2-bromo-4-difluoromethoxy-5-methoxy-phenyl)-amide]"
11,6.737,"COc1cc(NC(=O)N2C=CC(=O)C[C@H]2c2ccc(F)cc2)ccc1C [Compound 45, (S)-2-(4-Fluoro-phenyl)-4-oxo-3,4-dihydro-2H-pyridine-1-carboxylic acid (3-methoxy-4-methyl-phenyl)-amide]"
12,7.293,"COc1cc(NC(=O)N2C=CC(=O)C[C@H]2c2cccc(F)c2)c(Br)cc1OC(F)F [Compound 46, (S)-2-(3-Fluoro-phenyl)-4-oxo-3,4-dihydro-2H-pyridine-1-carboxylic acid (2-bromo-4-difluoromethoxy-5-methoxy-phenyl)-amide]"
13,6.84,"Cc1cc(Br)c(NC(=O)N2C=CC(=O)C[C@H]2c2ccc(F)cc2)cc1C#N [Compound 48, (S)-2-(4-Fluoro-phenyl)-4-oxo-3,4-dihydro-2H-pyridine-1-carboxylic acid (2-bromo-5-cyano-4-methyl-phenyl)-amide]"

# Second part, the compound before the results:
row,Compound,pIC50
1,"O=C1C=CN(C(=O)Nc2cc(O)c(Cl)cc2Br)[C@H](c2ccc(F)cc2)C1 [Compound 24, (S)-2-(4-Fluoro-phenyl)-4-oxo-3,4-dihydro-2H-pyridine-1-carboxylic acid (2-bromo-4-chloro-5-hydroxy-phenyl)-amide]",6.71
2,"COc1cc(NC(=O)N2C=CC(=O)C[C@H]2c2cccc(F)c2)c(Br)cc1C [Compound 29, (S)-2-(3-Fluoro-phenyl)-4-oxo-3,4-dihydro-2H-pyridine-1-carboxylic acid (2-bromo-5-methoxy-4-methyl-phenyl)-amide]",7.93
3,"COC(=O)COc1cc(N(CC(=O)OC)C(=O)N2C=CC(=O)C[C@H]2c2ccc(F)cc2)c(Br)cc1Cl [Compound 31, (4-Bromo-2-chloro-5-{[(S)-2-(4-fluoro-phenyl)-4-oxo-3,4-dihydro-2H-pyridine-1-carbonyl]-methoxycarbonylmethyl-amino}-phenoxy)-acetic acid methyl ester]",5.27
4,"O=C(O)COc1cc(NC(=O)N2C=CC(=O)C[C@H]2c2ccc(F)cc2)c(Br)cc1Cl [Compound 32, (4-Bromo-2-chloro-5-{[(S)-2-(4-fluoro-phenyl)-4-oxo-3,4-dihydro-2H-pyridine-1-carbonyl]-amino}-phenoxy)-acetic acid]",5.365
5,"COc1ccc(NC(=O)N2C=CC(=O)C[C@H]2c2ccc(F)cc2)cc1OC [Compound 34, (S)-2-(4-Fluoro-phenyl)-4-oxo-3,4-dihydro-2H-pyridine-1-carboxylic acid (3,4-dimethoxy-phenyl)-amide]",7.2425
6,"COc1cc(NC(=O)N2C=CC(=O)C[C@H]2c2ccc(F)cc2)c(F)cc1Cl [Compound 35, (S)-2-(4-Fluoro-phenyl)-4-oxo-3,4-dihydro-2H-pyridine-1-carboxylic acid (4-chloro-2-fluoro-5-methoxy-phenyl)-amide]",7.195
7,"COC(=O)c1cc(Br)c(NC(=O)N2C=CC(=O)C[C@H]2c2ccc(F)cc2)cc1OC [Compound 38, 5-Bromo-4-{[(S)-2-(4-fluoro-phenyl)-4-oxo-3,4-dihydro-2H-pyridine-1-carbonyl]-amino}-2-methoxy-benzoic acid methyl ester]",6.89
8,"O=C1C=CN(C(=O)Nc2cc(OCCO)c(Cl)cc2Br)[C@H](c2ccc(F)cc2)C1 [Compound 40, (S)-2-(4-Fluoro-phenyl)-4-oxo-3,4-dihydro-2H-pyridine-1-carboxylic acid [2-bromo-4-chloro-5-(2-hydroxy-ethoxy)-phenyl]-amide]",7.607
9,"COc1cc(NC(=O)N2C=CC(=O)CC2c2ccccc2F)c(Br)cc1C (stereo not drawn) [Compound 41, 2-(2-Fluoro-phenyl)-4-oxo-3,4-dihydro-2H-pyridine-1-carboxylic acid (2-bromo-5-methoxy-4-methyl-phenyl)-amide]",6.43
10,"COc1cc(NC(=O)N2C=CC(=O)CC2c2ccc(F)c(F)c2)c(Br)cc1C (stereo not drawn) [Compound 44, 2-(3,4-Difluoro-phenyl)-4-oxo-3,4-dihydro-2H-pyridine-1-carboxylic acid (2-bromo-5-methoxy-4-methyl-phenyl)-amide]",7.383
11,"COc1cc(NC(=O)N2C=CC(=O)C[C@H]2c2ccc(F)cc2)c(F)cc1C [Compound 49, (S)-2-(4-Fluoro-phenyl)-4-oxo-3,4-dihydro-2H-pyridine-1-carboxylic acid (2-fluoro-5-methoxy-4-methyl-phenyl)-amide]",7.21
